Laboratory results reported in patent US8501446B2 (Vertex Pharmaceuticals Incorporated, priority 2004, dated 2013).

Columns and labels:
Assay type in all cases: biochemical
JAK3 = molecular target: T1, JAK3 (Homo sapiens, UniProt P52333); experiment: JAK3 inhibition assay (standard radioactive enzyme assay); conditions: average Ki if more than one value determined
T1 sequence (P52333 1-1124): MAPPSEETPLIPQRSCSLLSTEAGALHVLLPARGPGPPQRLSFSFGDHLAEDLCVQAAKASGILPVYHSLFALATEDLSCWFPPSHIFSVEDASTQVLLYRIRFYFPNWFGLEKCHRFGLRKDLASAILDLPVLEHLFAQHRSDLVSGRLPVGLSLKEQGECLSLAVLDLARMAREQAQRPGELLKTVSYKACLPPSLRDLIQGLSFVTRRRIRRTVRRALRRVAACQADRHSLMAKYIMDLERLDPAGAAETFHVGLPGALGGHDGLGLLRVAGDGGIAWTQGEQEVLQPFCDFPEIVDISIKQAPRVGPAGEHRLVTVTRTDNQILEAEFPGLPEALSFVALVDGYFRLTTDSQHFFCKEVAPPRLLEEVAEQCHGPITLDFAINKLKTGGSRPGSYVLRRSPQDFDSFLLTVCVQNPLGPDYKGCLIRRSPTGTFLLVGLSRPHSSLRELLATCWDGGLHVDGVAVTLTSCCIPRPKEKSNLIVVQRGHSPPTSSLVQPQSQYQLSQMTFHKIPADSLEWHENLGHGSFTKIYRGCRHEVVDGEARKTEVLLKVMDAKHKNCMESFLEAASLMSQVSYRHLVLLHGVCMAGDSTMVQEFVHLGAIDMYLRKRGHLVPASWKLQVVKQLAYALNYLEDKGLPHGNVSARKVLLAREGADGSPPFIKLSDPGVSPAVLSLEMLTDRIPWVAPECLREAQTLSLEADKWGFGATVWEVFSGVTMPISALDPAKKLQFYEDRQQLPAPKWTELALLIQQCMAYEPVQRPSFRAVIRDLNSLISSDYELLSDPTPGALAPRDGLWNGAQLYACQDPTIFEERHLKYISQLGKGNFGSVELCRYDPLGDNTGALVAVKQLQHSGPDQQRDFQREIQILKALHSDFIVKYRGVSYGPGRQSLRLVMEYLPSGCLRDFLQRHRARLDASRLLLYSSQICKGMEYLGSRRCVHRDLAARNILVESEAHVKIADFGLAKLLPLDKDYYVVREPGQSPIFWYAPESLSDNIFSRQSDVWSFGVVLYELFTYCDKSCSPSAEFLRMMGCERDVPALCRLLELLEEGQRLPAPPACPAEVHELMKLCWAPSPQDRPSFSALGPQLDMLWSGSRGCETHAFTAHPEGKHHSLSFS

ROCK I (AA 6-553) = molecular target: T2, ROCK I (AA 6-553) (Homo sapiens, UniProt Q13464); experiment: ROCK inhibition assay, standard coupled enzyme system ("Enzyme"); conditions: enzyme-linked assay
T2 construct: ROCK I (AA 6-553)
T2 sequence (Q13464 6-553, species assumed): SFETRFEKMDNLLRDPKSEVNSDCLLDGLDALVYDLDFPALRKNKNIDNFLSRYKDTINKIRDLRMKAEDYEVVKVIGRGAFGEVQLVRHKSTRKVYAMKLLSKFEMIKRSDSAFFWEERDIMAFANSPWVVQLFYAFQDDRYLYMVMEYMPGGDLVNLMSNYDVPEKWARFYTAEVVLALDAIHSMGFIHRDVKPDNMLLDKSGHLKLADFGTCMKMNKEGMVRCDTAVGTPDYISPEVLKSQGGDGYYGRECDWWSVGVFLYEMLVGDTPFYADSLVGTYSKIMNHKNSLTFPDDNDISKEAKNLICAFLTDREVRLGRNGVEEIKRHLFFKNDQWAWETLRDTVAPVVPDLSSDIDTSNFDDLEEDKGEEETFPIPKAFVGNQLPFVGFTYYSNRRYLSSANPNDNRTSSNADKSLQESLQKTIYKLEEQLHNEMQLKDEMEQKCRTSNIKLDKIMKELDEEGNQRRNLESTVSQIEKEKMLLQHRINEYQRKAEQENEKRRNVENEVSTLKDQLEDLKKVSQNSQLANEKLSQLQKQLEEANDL
Summary of the method: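 ROCK I (AA 6-553) at 45 nM and 30 °C with 45 μM ATP and 200 μM peptide, in 100 mM HEPES pH 7.5, 10 mM MgCl2, 25 mM NaCl, 2 mM DTT, 1.5% DMSO. ADP output read by a PK/LDH coupled system: 2.5 mM PEP, 350 μM NADH, 30 μg/ml PK, 10 μg/ml LDH.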

JAK2 = JAK2 (Homo sapiens, UniProt O60674); experiment: JAK2 inhibition assay (radioactive enzyme assay, as for JAK3); conditions: average Ki if more than one value determined
JAK2, sequence (O60674 whole entry, species assumed): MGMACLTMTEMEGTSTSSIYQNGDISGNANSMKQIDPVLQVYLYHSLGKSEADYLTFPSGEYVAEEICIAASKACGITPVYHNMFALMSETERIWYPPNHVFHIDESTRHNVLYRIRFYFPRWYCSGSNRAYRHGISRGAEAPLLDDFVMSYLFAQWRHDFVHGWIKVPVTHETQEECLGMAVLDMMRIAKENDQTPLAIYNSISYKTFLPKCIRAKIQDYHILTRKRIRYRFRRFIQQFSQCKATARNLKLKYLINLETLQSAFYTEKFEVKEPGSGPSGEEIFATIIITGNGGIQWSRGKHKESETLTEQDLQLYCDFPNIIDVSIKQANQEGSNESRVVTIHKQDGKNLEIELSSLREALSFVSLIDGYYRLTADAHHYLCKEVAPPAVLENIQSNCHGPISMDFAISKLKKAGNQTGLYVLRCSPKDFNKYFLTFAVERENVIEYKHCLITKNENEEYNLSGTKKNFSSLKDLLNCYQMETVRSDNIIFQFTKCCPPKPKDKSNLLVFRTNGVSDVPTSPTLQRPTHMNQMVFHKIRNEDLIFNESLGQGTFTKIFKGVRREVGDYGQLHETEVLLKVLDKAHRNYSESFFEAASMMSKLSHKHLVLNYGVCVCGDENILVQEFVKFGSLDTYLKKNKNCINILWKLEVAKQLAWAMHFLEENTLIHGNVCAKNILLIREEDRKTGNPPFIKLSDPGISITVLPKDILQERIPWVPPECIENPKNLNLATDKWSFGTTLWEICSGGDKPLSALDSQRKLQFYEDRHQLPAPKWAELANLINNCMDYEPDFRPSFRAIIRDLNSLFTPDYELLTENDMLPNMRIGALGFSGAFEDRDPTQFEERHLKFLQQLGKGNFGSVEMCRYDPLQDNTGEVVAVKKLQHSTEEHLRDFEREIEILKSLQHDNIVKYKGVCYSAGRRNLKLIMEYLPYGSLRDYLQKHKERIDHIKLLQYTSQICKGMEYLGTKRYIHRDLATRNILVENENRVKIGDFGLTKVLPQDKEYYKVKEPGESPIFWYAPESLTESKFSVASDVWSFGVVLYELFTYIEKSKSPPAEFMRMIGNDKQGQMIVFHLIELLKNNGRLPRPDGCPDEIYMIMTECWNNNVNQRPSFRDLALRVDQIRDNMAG
Summary of the method: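 Both kinases: poly(Glu)4Tyr substrate in 100 mM HEPES pH 7.4, 10 mM MgCl2, 1 mM DTT. Run 20 min at 25° C, TCA stop, filter-bound ³³P counted, Ki(app) fitted after background subtraction. JAK3: final [γ-³³P]ATP 5 μM, enzyme added as 2 nM solution. JAK2: final poly(Glu)4Tyr 15 μM, final ATP 12 μM.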

[1] = molecular target: T3, full length Aurora-A (AA 1-403) (Homo sapiens, UniProt O14965); experiment: Aurora-A inhibition assay, standard coupled enzyme system; conditions: average Ki if more than one value determined
T3 construct: full length Aurora-A (AA 1-403)
T3 sequence (O14965 1-403): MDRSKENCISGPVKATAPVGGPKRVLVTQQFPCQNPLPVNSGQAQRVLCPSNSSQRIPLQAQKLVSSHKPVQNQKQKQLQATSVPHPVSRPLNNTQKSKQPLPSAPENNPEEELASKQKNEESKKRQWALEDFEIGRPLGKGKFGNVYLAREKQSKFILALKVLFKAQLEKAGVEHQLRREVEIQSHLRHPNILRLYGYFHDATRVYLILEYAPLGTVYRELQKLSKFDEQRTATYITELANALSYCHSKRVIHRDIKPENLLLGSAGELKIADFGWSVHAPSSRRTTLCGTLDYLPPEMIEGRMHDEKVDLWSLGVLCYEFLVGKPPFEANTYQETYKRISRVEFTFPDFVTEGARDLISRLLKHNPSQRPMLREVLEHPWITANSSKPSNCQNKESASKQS

Aurora-B = Aurora-B (Homo sapiens, UniProt Q96GD4); experiment: Aurora-B inhibition assay, radioactive assay; conditions: average Ki if more than one value determined
Aurora-B, sequence (Q96GD4 whole entry): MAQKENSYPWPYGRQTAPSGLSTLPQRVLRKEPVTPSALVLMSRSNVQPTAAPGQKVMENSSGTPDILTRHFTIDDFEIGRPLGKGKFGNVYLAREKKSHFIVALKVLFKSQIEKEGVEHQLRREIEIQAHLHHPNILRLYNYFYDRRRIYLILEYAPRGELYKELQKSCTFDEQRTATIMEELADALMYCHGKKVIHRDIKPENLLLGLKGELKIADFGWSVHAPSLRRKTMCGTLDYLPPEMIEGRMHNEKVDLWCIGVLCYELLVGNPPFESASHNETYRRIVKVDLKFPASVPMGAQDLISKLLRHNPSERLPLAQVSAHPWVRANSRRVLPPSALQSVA
Procedure: Compounds were screened for their ability to inhibit JAK3 using a standard radioactive enzyme assay. 1.5 μL/well of a DMSO stock containing serial dilutions of a compound of the present invention (concentrations ranging from 667 μM to 46 nM) was placed in a 96 well polycarbonate plate. 50 μL per well of kinase buffer (100 mM HEPES (pH 7.4), 10 mM MgCl2, 25 mM NaCl, 1 mM DTT, and 0.01% bovine serum albumin (BSA)) containing 2 μM poly(Glu)4Tyr and 10 μM ATP was also added to the plate. To initiate the reaction, 50 μL kinase buffer containing 2 nM JAK3 enzyme was added. Final ATP concentration was 5 μM [γ-^33P] ATP (200 μCi ^33P ATP/μmol ATP (Perkin Elmer, Cambridge, Mass.). After 20 minutes at room temperature (25° C.), the reaction was stopped by adding 50 μL 20% trichloroacetic acid (TCA)/0.4 mM ATP to each well. The entire content of each well was then transferred to a 96 well glass fiber filter plate using a TomTek Cell Harvester. After washing, 60 μL scintillation fluid was added and ^33P incorporation detected using a Perkin Elmer TopCount. After removing mean background values for all of the data points the data was fit using Prism software to obtain a Ki(app). Inhibition of JAK2 was measured as above except that final poly(Glu)4Tyr concentration was 15 μM and final ATP concentration was 12 μM.
Some compounds were screened for their ability to inhibit ROCK using a standard radioactive enzyme assay. Assays were carried out in a solution containing 100 mM HEPES (pH 7.5), 10 mM MgCl2, 25 mM NaCl, 2 mM DTT, and 1.5% DMSO. Final substrate concentrations in the assay were 13 μM [γ-^33P] ATP (25 mCi ^33P ATP/mmol ATP, Perkin Elmer, Cambridge, Mass./Sigma Chemicals, St Louis, Mo.) and 27 μM Myelin Basic Protein (MBP). Final enzyme concentration in the assay was 5 nM ROCK. Assays were carried out at room temperature. 1.5 μl of DMSO stock containing serial dilutions of the compound of the present invention (concentrations ranging from 10 μM to 2.6 nM) was placed in a 96 well plate. 50 μl of Solution 1 (100 mM HEPES (pH 7.5), 10 mM MgCl2, […]) was added to the plate. The reaction was initiated by addition of 50 μl of Solution 2 (100 mM HEPES (pH 7.5), 10 mM MgCl2, 4 mM DTT, […] and 10 nM ROCK). After 2 hours the reaction was quenched with 50 μL of 30% trichloroacetic acid (TCA, Fisher) containing 9 mM ATP. Transfer of 140 μL of the quenched reaction to a glass fiber filter plate (Corning, Cat. No. 3511) was followed by washing 3 times with 5% TCA. 50 μL of Optima Gold scintillation fluid (Perkin Elmer) was added and the plates were counted on a Top Count (Perkin Elmer). After removing mean background values for all of the data points the data was fit using Prism software to obtain a Ki(app).
An assay stock buffer solution was prepared containing all of the reagents listed above with the exception of ATP and the test compound of interest. The assay stock buffer solution (60 μl) was incubated in a 96 well plate with 2 μl of the test compound of interest at final concentrations spanning 0.002 μM to 30 μM at 30° C. for 10 min. Typically, a 12 point titration was conducted by preparing serial dilutions (from 1 mM compound stocks) with DMSO of the test compounds in daughter plates. The reaction was initiated by the addition of 5 μl of ATP (final concentration 200 μM). Rates of reaction were obtained using a Molecular Devices Spectramax plate reader (Sunnyvale, Calif.) over 10 min at 30° C. The Ki values were determined from the rate data as a function of inhibitor concentration using computerized nonlinear regression (Prism 3.0, Graphpad Software, San Diego, Calif.). Aurora-C activity was screened in a similar manner using Aurora-C protein. Aurora-B activity was screened using a radioactive assay, such as described in Examples 1 and 2, but using Aurora-B protein.

| Ki (JAK3) | Ki (ROCK I (AA 6-553)) | Ki (JAK2) | Ki [1] | Ki (Aurora-B) | SMILES |
| --- | --- | --- | --- | --- | --- |
| < 0.5 µM | 0.5 to 5 µM | < 0.5 µM | 0.5 to 5 µM |  | CC(=O)N1[C@H](C)CN(c2cccc(-c3c[nH]c4ncc(NC(=O)c5cccnc5)cc34)n2)C[C@@H]1C [Compound 163] |
| < 0.5 µM | 0.5 to 5 µM | < 0.5 µM | 0.5 to 5 µM |  | CC(=O)N1[C@H](C)CN(c2cccc(-c3c[nH]c4ncc(NC(=O)c5cnccn5)cc34)n2)C[C@@H]1C [Compound 164] |
| < 0.5 µM | 0.5 to 5 µM | < 0.5 µM | 0.5 to 5 µM |  | CC(=O)N1[C@H](C)CN(c2cccc(-c3c[nH]c4ncc(NC(=O)C5CC5)cc34)n2)C[C@@H]1C [Compound 165] |
| < 0.5 µM | 0.5 to 5 µM | < 0.5 µM | 0.5 to 5 µM |  | CC(=O)N1[C@H](C)CN(c2cccc(-c3c[nH]c4ncc(NC(=O)C5CCCC5)cc34)n2)C[C@@H]1C [Compound 166] |
| < 0.5 µM | 0.5 to 5 µM | < 0.5 µM | 0.5 to 5 µM |  | CC(=O)N1[C@H](C)CN(c2cccc(-c3c[nH]c4ncc(NC(=O)c5ccno5)cc34)n2)C[C@@H]1C [Compound 167] |
| < 0.5 µM | 0.5 to 5 µM | < 0.5 µM | 0.5 to 5 µM |  | CC(=O)N1[C@H](C)CN(c2cccc(-c3c[nH]c4ncc(NC(=O)c5cccc(C)c5)cc34)n2)C[C@@H]1C [Compound 168] |
| < 0.5 µM | 0.5 to 5 µM | < 0.5 µM | 0.5 to 5 µM |  | CC(=O)N1[C@H](C)CN(c2cccc(-c3c[nH]c4ncc(NC(=O)c5cccc(F)c5)cc34)n2)C[C@@H]1C [Compound 169] |
| < 0.5 µM | 0.5 to 5 µM | < 0.5 µM | 0.5 to 5 µM |  | COCC(=O)Nc1cnc2[nH]cc(-c3cccc(N4C[C@@H](C)N(C(C)=O)[C@@H](C)C4)n3)c2c1 [Compound 170] |
| < 0.5 µM | < 0.5 µM | < 0.5 µM | 0.5 to 5 µM |  | CC(=O)N1[C@H](C)CN(c2cccc(-c3c[nH]c4ncc(NC(=O)c5ccccc5F)cc34)n2)C[C@@H]1C [Compound 172] |
| < 0.5 µM | 0.5 to 5 µM | < 0.5 µM | < 0.5 µM |  | O=C(O)c1cc(Br)cc(-c2c[nH]c3ncc(Cl)cc23)c1 [Compound 177] |
| < 0.5 µM | 0.5 to 5 µM | < 0.5 µM | 0.5 to 5 µM |  | CC(=O)N1[C@H](C)CN(c2cccc(-c3c[nH]c4ncc(NC(=O)c5cccc(C#N)c5)cc34)n2)C[C@@H]1C [Compound 179] |
| < 0.5 µM | 0.5 to 5 µM | < 0.5 µM | 0.5 to 5 µM |  | C/C=C/C(=O)Nc1cnc2[nH]cc(-c3cccc(N4C[C@@H](C)N(C(C)=O)[C@@H](C)C4)n3)c2c1 [Compound 181] |
| < 0.5 µM | 0.5 to 5 µM | < 0.5 µM | 0.5 to 5 µM |  | CC(=O)N1[C@H](C)CN(c2cccc(-c3c[nH]c4ncc(NC(=O)c5cccs5)cc34)n2)C[C@@H]1C [Compound 182] |
| < 0.5 µM | 0.5 to 5 µM | < 0.5 µM | 0.5 to 5 µM |  | CC(=O)N1[C@H](C)CN(c2cccc(-c3c[nH]c4ncc(NC(=O)c5nc[nH]n5)cc34)n2)C[C@@H]1C [Compound 190] |
| < 0.5 µM | < 0.5 µM | < 0.5 µM | 0.5 to 5 µM |  | C=C/C=C/C(=O)Nc1cnc2[nH]cc(-c3cccc(N4C[C@@H](C)N(C(C)=O)[C@@H](C)C4)n3)c2c1 [Compound 191] |
| < 0.5 µM | < 0.5 µM | < 0.5 µM | 0.5 to 5 µM |  | CC(=O)N1[C@H](C)CN(c2cccc(-c3c[nH]c4ncc(NC(=O)/C=C/Cl)cc34)n2)C[C@@H]1C [Compound 192] |
|  |  |  | < 0.5 µM | < 0.5 µM | COC(=O)COc1cccc([C@H](C)Nc2nc(-c3c[nH]c4ncc(Cl)cc34)ncc2F)c1 [Compound 335] |
|  |  |  | < 0.5 µM | 0.5 to 5 µM | C#CCNc1nc(-c2c[nH]c3ncc(Cl)cc23)ncc1F [Compound 382] |
|  |  |  | 0.5 to 5 µM | 0.5 to 5 µM | C[C@H](Nc1cc(NCCN(C)C)nc(-c2c[nH]c3ncc(Cl)cc23)n1)C(=O)NCC(F)(F)F [Compound 419] |
|  |  |  | 0.5 to 5 µM | 0.5 to 5 µM | C[C@H](Nc1nc(-c2c[nH]c3ncc(Cl)cc23)ncc1F)C(=O)NCCOc1ccccc1 [Compound 457] |
